Source: PMC11345841, “Exploring 2-Sulfonylpyrimidine Warheads as Acrylamide Surrogates for Targeted Covalent Inhibition: A BTK Story” (Journal of Medicinal Chemistry, 2024)

Experiment: Electrophilic reactivity assessment (GSH assay)
Settings: for stability/reactivity with 10-fold excess of GSH in PBS: up to 6 h at 20 °C, LC-MS
Method: Final volume: 1200 μL; final composition: 100 μM compound, 100 μM standard, 1 mM GSH, 5% v/v DMSO. The resulting mixture was kept at 20 °C. Reaction monitoring and rate determination: LC-MS traces of the mixture were acquired every 10 min. Normalized integrations of the starting material and/or product were plotted as a function of time (s), using the 4-hydroxybenzoic acid peak as standard for integral calibration/normalization, allowing extraction of pseudo-first-order reaction rate constants (k’). All measurements were performed in triplicate.

Compound | stability/reactivity with 10-fold excess of GSH in PBS | pseudo-first-order rate constant kGSH/PBS (100 μM compound, 1 mM GSH, PBS pH 7.4, 20 °C, triplicate)
Cc1cnc(S(C)(=O)=O)nc1N1CCCC(n2nc(-c3ccc(Oc4ccccc4)cc3)c3c(N)ncnc32)C1 (stereo not drawn) [Compound 8a, 1-(1-(5-Methyl-2-(methylsulfonyl)pyrimidin-4-yl)piperidin-3-yl)-3-(4-phenoxyphenyl)-1H-pyrazolo[3,4-d]pyrimidin-4-amine] | fully stable | –
CNC(=O)c1cnc(S(C)(=O)=O)nc1N1CCCC(n2nc(-c3ccc(Oc4ccccc4)cc3)c3c(N)ncnc32)C1 (stereo not drawn) [Compound 8d, 4-(3-(4-Amino-3-(4-phenoxyphenyl)-1H-pyrazolo[3,4-d]pyrimidin-1-yl)piperidin-1-yl)-N-methyl-2-(methylsulfonyl)pyrimidine-5-carboxamide] | mild reactivity | 47 × 10^–5 ± 0.5 × 10^–5 s^–1
